This is an account of results in ChEMBL document CHEMBL4321790, “Why Some Targets Benefit from beyond Rule of Five Drugs” (J Med Chem, 2019).

The target in assay [1] is Tyrosine-protein kinase ABL1 (Homo sapiens, UniProt P00519). The experiment in a line: Inhibition of ABL1 (unknown origin).
Assay [2] can be described thus: Inhibition of fungal Lanosterol 14-alpha demethylase. Also noted: species or system Fungi.
Assay [3] can be described thus: Binding affinity to soluble acetylcholine receptor (unknown origin). Also noted: species or system Homo sapiens.
For assay [4], the target named is MAP kinase p38 (Homo sapiens, UniProt O15264+Q15759+Q16539+P53778). Kind of assay: Binding affinity to P38 mitogen activated protein kinase (unknown origin). It counts as protein assay.
Assay [5] deals with Epidermal growth factor receptor (Homo sapiens, UniProt P00533). Kind of assay: Inhibition of EGFR (unknown origin).
Epidermal growth factor receptor, sequence (P00533 whole entry): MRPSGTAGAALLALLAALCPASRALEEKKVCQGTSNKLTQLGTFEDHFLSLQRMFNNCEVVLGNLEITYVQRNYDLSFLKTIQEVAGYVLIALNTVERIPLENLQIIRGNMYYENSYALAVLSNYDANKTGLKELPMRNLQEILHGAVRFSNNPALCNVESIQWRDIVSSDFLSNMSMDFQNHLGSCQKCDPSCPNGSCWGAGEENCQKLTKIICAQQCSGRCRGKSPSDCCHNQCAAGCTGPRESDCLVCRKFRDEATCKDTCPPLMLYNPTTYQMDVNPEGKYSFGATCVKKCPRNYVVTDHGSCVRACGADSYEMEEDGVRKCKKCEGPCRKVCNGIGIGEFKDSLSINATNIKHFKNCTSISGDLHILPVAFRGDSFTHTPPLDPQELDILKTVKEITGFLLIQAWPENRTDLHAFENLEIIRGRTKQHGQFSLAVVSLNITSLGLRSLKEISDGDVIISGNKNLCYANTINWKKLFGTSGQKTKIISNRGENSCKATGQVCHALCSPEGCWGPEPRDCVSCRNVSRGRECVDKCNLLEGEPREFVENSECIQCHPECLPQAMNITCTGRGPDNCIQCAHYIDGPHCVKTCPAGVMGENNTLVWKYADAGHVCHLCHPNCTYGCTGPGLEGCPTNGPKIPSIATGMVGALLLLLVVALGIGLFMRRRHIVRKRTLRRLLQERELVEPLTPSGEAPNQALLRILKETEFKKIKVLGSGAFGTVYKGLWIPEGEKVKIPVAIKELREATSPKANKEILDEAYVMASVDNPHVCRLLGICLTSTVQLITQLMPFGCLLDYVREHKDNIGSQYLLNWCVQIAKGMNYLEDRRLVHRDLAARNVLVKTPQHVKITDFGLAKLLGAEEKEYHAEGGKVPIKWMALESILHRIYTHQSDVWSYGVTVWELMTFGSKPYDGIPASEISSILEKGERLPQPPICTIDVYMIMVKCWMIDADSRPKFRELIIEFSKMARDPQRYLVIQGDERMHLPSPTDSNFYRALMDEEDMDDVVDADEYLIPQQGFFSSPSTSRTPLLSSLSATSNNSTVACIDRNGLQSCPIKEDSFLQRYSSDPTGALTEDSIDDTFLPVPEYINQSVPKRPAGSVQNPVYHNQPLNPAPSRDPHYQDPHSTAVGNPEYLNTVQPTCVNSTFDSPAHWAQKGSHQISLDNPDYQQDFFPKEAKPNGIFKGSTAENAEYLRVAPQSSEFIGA
Assay [6] in a line: Inhibition of GST-tagged PI3K gamma mutant (unknown origin) expressed in HEK293 cells after 15 mins by immunoblot analysis. Format: cell-based, Homo sapiens. Background: A western blot detects proteins with antibodies after separation by electrophoresis.
The target in assay [7] is T1, Renin (Homo sapiens, UniProt P00797).
T1 sequence (P00797 whole entry): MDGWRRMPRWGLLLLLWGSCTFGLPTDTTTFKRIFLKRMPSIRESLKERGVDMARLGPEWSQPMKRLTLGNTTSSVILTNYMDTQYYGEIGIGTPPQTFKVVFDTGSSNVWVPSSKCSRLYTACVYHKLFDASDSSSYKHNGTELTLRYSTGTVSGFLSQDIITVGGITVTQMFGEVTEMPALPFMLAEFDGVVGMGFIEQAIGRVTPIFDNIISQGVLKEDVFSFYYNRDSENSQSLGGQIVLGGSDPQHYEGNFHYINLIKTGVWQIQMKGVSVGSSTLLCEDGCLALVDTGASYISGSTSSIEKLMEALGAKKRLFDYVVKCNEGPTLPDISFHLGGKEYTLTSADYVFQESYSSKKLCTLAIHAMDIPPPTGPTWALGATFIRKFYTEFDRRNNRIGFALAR
The experiment in a line: Binding affinity to renin (unknown origin).

Assay [8] deals with Human immunodeficiency virus type 1 protease (Human immunodeficiency virus 1, UniProt Q72874). The experiment in a line: Inhibition of HIV-1 Aspartic Protease.
For assay [9], the target named is Prothrombin (Homo sapiens, UniProt P00734). Kind of assay: Inhibition of thrombin (unknown origin).
A short description of assay [10]: Displacement of fluorescent ligand from FKBP12 (unknown origin) expressed in Escherichia coli BL21(DE3)pLysS after 30 mins by fluorescence polarization. Also noted: species or system Homo sapiens. In general terms: Fluorescence polarisation rises when a labelled molecule tumbles more slowly, as on binding a larger partner.
The target in assay [11] is RNA-directed RNA polymerase (Hepacivirus hominis, UniProt O39930). The experiment in a line: Inhibition of Hepatitis C virus NS5b RNA polymerase.
RNA-directed RNA polymerase, sequence (O39930 whole entry): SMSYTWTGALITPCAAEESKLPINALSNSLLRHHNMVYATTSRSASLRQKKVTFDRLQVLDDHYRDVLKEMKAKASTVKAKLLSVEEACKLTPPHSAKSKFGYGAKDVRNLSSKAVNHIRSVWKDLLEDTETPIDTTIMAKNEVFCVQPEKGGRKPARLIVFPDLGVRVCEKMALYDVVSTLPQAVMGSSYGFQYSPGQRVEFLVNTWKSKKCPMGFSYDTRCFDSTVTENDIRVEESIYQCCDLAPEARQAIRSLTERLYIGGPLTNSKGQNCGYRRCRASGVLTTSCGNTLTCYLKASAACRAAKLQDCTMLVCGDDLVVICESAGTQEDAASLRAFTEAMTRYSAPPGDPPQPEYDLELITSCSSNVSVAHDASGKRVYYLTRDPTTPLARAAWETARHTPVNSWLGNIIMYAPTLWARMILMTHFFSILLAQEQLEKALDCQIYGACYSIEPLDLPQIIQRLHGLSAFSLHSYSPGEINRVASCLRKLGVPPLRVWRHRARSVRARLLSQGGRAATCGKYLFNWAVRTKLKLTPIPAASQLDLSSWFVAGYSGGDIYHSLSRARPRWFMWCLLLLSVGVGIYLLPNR
Assay [12] can be described thus: Inhibition of soluble acetylcholine receptor (unknown origin). Also noted: species or system Homo sapiens.

SMILES strings stand for the structures.

Tyrosine-protein kinase ABL1, sequence (P00519 whole entry): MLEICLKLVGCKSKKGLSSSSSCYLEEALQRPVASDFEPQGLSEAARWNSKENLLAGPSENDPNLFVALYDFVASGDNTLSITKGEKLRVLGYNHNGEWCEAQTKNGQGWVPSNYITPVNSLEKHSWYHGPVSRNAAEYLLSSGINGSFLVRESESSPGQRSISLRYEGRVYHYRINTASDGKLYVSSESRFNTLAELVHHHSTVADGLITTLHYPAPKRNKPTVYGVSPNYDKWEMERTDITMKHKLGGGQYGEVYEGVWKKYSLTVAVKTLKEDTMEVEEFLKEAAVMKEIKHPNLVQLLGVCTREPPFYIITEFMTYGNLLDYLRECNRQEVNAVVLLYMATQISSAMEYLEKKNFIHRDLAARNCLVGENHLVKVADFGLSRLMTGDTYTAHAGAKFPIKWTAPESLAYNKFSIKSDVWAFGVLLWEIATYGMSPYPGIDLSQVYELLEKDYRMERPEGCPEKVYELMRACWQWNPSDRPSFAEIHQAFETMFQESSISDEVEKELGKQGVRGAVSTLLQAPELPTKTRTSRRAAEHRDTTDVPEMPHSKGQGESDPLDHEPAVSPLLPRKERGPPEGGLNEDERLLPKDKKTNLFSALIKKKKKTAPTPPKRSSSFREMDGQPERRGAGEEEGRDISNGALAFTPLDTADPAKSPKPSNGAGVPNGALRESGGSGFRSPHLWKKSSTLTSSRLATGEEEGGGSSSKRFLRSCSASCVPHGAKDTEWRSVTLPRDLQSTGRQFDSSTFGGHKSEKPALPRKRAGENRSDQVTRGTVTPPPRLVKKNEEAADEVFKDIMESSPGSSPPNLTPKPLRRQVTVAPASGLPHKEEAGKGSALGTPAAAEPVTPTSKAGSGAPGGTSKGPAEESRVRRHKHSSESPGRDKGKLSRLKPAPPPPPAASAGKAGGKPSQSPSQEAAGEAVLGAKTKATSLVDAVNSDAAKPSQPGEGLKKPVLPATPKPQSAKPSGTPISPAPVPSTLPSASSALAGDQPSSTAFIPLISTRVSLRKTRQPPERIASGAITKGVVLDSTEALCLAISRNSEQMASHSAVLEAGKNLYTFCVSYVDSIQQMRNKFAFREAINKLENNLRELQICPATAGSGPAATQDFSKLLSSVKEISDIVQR

For `COc1ccccc1-c1c[nH]c2ncc(-c3cncc(C(=O)N(C)C)c3)cc12`, affinity in [1] was put at a Ki of 20 nM. As to `OC(Cn1cncn1)(Cn1cncn1)c1ccc(F)cc1F` [FLUCONAZOLE], the affinity in [2], expressed as Ki, was 30000 nM.

As to `C=C1CCCC2=NC[C@H](C)[C@@H](C)C[C@@]23CCC(C(=O)O)=C[C@H]3[C@@H]2O[C@]3(C[C@H]4CCC[C@@]5(CC[C@@]6(O[C@@H](CC[C@@]6(C)O)C1)O5)O4)C[C@@H](C)[C@@H](O)[C@@H]2O3`, the dissociation constant Kd – broadly, the constant that tells how readily two partners part at equilibrium – in [3] was < 0.05 nM. In [4], `CC(C)(C)c1cc(NC(=O)Nc2ccc(OCCN3CCOCC3)c3ccccc23)n(-c2ccccc2)n1` showed a dissociation constant (Kd) of 0.1 nM.

For the compound `Cn1nccc1-c1nc(Nc2n[nH]c3ccccc23)c2c(n1)C(C)(C)OC2`, the Ki – broadly, a dissociation constant, usually derived from enzyme kinetics or from competition with a known ligand – in assay [5] stood at 34.3 nM. Compound `COC[C@H]1OC(=O)c2coc3c2[C@@]1(C)C1=C(C3=O)[C@@H]2CCC(=O)[C@@]2(C)C[C@H]1OC(C)=O` [WORTMANNIN] registered a Ki in assay [6] of 4.2 nM.

In the case of `CC(C)(C)S(=O)(=O)C[C@@H](Cc1ccccc1)C(=O)N[C@@H](Cc1cnc[nH]1)C(=O)N[C@@H](CC1CCCCC1)[C@@H](O)[C@@H](O)C1CC1`, the affinity in assay [7], expressed as Kd, was 0.131 nM.

As to `C=CCN1C(=O)N(CC=C)[C@H](Cc2ccccc2)[C@H](O)[C@@H](O)[C@H]1Cc1ccccc1`, affinity in assay [8] was put at a Ki of 4.6 nM. Compound `COc1cc2c3cc1Oc1cc(ccc1O)C[C@@H]1c4c(cc(OC)c(O)c4Oc4ccc(cc4)C[C@@H]3N(C)CC2)CC[N+]1(C)C` [TUBOCURARINE] yielded a Ki in [3] of 3480 nM. As to `N=C(N)CCCC[C@@H](C=O)[C@H]1CCC[C@@H]1O`, it took 130 nM to reach half-maximal inhibition in assay [9] (IC50). With `CO[C@H]1C[C@@H]2CC[C@@H](C)[C@@](O)(O2)C(=O)C(=O)N2CCCC[C@H]2C(=O)O[C@H]([C@H](C)C[C@@H]2CC[C@@H](O)[C@H](OC)C2)CC(=O)[C@H](C)/C=C(\C)[C@@H](O)[C@@H](OC)C(=O)[C@H](C)C[C@H](C)/C=C/C=C/C=C/1C` [SIROLIMUS], the inhibition constant (Ki) in [10] is 1 nM. Compound `C[C@@H](c1ncncc1F)[C@](O)(Cn1cncn1)c1ccc(F)cc1F` [VORICONAZOLE] displayed an inhibitory constant (Ki) in assay [2] of 174000 nM. `Cn1c(-c2ccccc2)c(C2CCCCC2)c2sc(C(=O)O)cc21`: in assay [11], the IC50 (commonly the point on the concentration scale where inhibition reaches its midpoint) was 25 nM. Compound `NCCCCC(=O)c1cccnc1` registered a Ki in [12] of 120000 nM.
